According to PubChem BioAssay (NCI):
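In this assay, cells in 96-well plates receive the compound at five concentrations for 48 hours. Endpoints are linearly interpolated between the surrounding concentrations. GI50 is the concentration that inhibits growth by half. The concentration for full growth arrest is given as TGI.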

What was measured:
Experiment in all cases: NCI anticancer screen, dose series, 48 h
786-0 renal = tested on: 786-0 renal
HCC-2998 colon = tested on: HCC-2998 colon
HOP-92 NSCLC = tested on: HOP-92 NSCLC
K-562 leukemia = tested on: K-562 leukemia
MALME-3M melanoma = tested on: MALME-3M melanoma
OVCAR-3 ovarian = tested on: OVCAR-3 ovarian
OVCAR-4 ovarian = tested on: OVCAR-4 ovarian
OVCAR-8 ovarian = tested on: OVCAR-8 ovarian
SF-539 CNS = tested on: SF-539 CNS
TK-10 renal = tested on: TK-10 renal

Row | SMILES | TGI (786-0 renal) | TGI (HCC-2998 colon) | TGI (HOP-92 NSCLC) | TGI (K-562 leukemia) | TGI (MALME-3M melanoma) | TGI (OVCAR-3 ovarian) | TGI (OVCAR-4 ovarian) | TGI (OVCAR-8 ovarian) | TGI (SF-539 CNS) | TGI (TK-10 renal) | GI50 (HCC-2998 colon) | GI50 (OVCAR-3 ovarian)
1 | CC1(C)OC[C@@H](C[C@H](O)COCc2ccccc2)O1 | > 100 µM | > 100 µM | > 100 µM | > 100 µM | > 100 µM | > 100 µM | > 100 µM | > 100 µM | > 100 µM | > 100 µM | – | –
2 | COc1ccc(C2=C(Cl)C(=O)O/C2=C\c2ccc(OC)c(Br)c2)cc1Cl | 39.1 µM | > 100 µM | 49.9 µM | > 100 µM | > 100 µM | 47 µM | > 100 µM | 51.8 µM | 30.6 µM | 38.3 µM | – | –
3 | NC(Cc1[nH]nc2ccccc12)C(=O)O (configuration not stated) | > 100 µM | > 100 µM | > 100 µM | > 100 µM | > 100 µM | > 100 µM | > 100 µM | > 100 µM | > 100 µM | > 100 µM | – | –
4 | Cc1nnc2n1-c1ccccc1N(Cc1ccccc1)CC2 | > 100 µM | > 100 µM | 51.9 µM | > 100 µM | > 100 µM | > 100 µM | > 100 µM | > 100 µM | > 100 µM | > 100 µM | – | –
5 | Cc1cc(S(=O)(=O)Nc2n[nH]c(Nc3ccccc3)n2)c(SCC(=O)O)cc1Cl | > 100 µM | > 100 µM | > 100 µM | > 100 µM | > 100 µM | > 100 µM | > 100 µM | > 100 µM | > 100 µM | > 100 µM | – | –
6 | NCCCCNCCCNC(=O)CNC(=O)CC(O)C(N)CCCC(NC(=O)C(CN)NC(=O)C(O)CNC(=O)CC(N)c1ccc(O)cc1)C(=O)O (configuration not stated) | > 10 µM | > 10 µM | > 10 µM | > 10 µM | > 10 µM | > 10 µM | > 10 µM | > 10 µM | > 10 µM | > 10 µM | – | –
7 | Cc1ccc(C(=O)Cc2nc3c([nH]c2=O)c(C)nn3-c2ccccc2)c(C)c1 | > 10 µM | > 10 µM | > 10 µM | > 10 µM | > 10 µM | 8.94 µM | 5.19 µM | > 10 µM | > 10 µM | > 10 µM | – | –
8 | Cc1cc(OCc2nnc3sc(NC(=O)c4ccccc4)nn23)ccc1Cl | > 100 µM | 90.2 µM | 34.8 µM | > 100 µM | 42.2 µM | > 100 µM | > 100 µM | 47.1 µM | > 100 µM | > 100 µM | – | –
9 | CCCCCCCCCCCCNC(=O)CCC(NC(=O)c1ccc(N(C)Cc2cnc3nc(N)nc(N)c3n2)cc1)C(=O)NCCCCCCCCCCCC (configuration not stated) | > 100 µM | > 100 µM | 30.9 µM | 62.6 µM | > 100 µM | > 100 µM | > 100 µM | > 100 µM | > 100 µM | > 100 µM | – | –
10 | Cc1ccc(S(=O)(=O)c2c(O)c3ccc(O)c(C)c3oc2=O)cc1 | > 100 µM | > 100 µM | > 100 µM | > 100 µM | > 100 µM | > 100 µM | > 100 µM | > 100 µM | > 100 µM | > 100 µM | – | –
11 | C#CCOCC12C=CC(O1)C1COC(=O)C12 (configuration not stated) | > 100 µM | > 100 µM | > 100 µM | > 100 µM | > 100 µM | > 100 µM | > 100 µM | > 100 µM | > 100 µM | > 100 µM | – | –
12 | O=C1CS/C(=N/N=C/c2cn(Cc3ccc(Cl)cc3Cl)c3ccccc23)N1 | 53.2 µM | 92.3 µM | > 100 µM | > 100 µM | > 100 µM | > 100 µM | > 100 µM | 30.6 µM | 41 µM | > 100 µM | – | –
13 | C[n+]1c(-c2ccc(NC(=O)c3ccc(C(=O)Nc4ccc(-c5cn6ccccc6[n+]5C)cc4)cc3)cc2)cn2ccccc21 | > 100 µM | > 100 µM | > 100 µM | > 100 µM | > 100 µM | > 100 µM | > 100 µM | > 100 µM | > 100 µM | > 100 µM | – | –
14 | Cc1nc(SCC(N)=O)c2sc(=S)n(-c3ccccc3)c2n1 | > 10 µM | > 10 µM | > 10 µM | > 10 µM | > 10 µM | > 10 µM | > 10 µM | > 10 µM | > 10 µM | > 10 µM | – | –
15 | O=C(Sc1c(-c2ccccc2)c(=O)n(-c2ccccc2)c(=S)n1-c1ccccc1)c1ccco1 | > 100 µM | > 100 µM | > 92.6 µM | > 100 µM | > 100 µM | > 100 µM | > 100 µM | > 100 µM | > 100 µM | > 100 µM | – | –
16 | S=c1[nH]nc(Cn2c3ccc(Br)cc3c3nc4ccccc4nc32)n1C1CCCCC1 | 54.8 µM | 61 µM | 19.6 µM | > 100 µM | 72.7 µM | > 59.7 µM | > 100 µM | > 67.5 µM | 42.1 µM | > 95.1 µM | – | –

Row | SMILES | TGI (786-0 renal) | TGI (HCC-2998 colon) | TGI (HOP-92 NSCLC) | TGI (K-562 leukemia) | TGI (MALME-3M melanoma) | TGI (OVCAR-3 ovarian) | TGI (OVCAR-4 ovarian) | TGI (OVCAR-8 ovarian) | TGI (SF-539 CNS) | TGI (TK-10 renal) | GI50 (HCC-2998 colon) | GI50 (OVCAR-3 ovarian)
17 | COc1ccc2c(c1)-c1c(c3cc(OC)ccc3n1CCN(C)C)CC2 | 22.7 µM | 20.2 µM | 27.7 µM | 26.5 µM | 31 µM | 28.1 µM | 33.1 µM | 32.6 µM | 29.8 µM | 28.9 µM | – | –
18 | Clc1cc(C(c2cc(Cl)sc2Cl)c2cc(Cl)sc2Cl)c(Cl)s1 | > 100 µM | > 100 µM | > 100 µM | > 100 µM | > 100 µM | > 100 µM | > 100 µM | > 100 µM | > 100 µM | > 100 µM | – | –
19 | CC(=O)OCC(=O)O[C@@H]1[C@H]2[C@@H](OC(=O)c3ccccc3)[C@@H](C)C[C@]2(O)[C@H](OC(C)=O)[C@@]2(C)C[C@]1(OC(C)=O)C[C@H]1C(=O)C(C)(C)[C@@H](OC(C)=O)[C@@H]12 | > 25 µM | > 25 µM | > 25 µM | > 25 µM | > 25 µM | > 25 µM | > 25 µM | > 25 µM | > 25 µM | > 25 µM | – | –
20 | COc1cc2c3cc1Oc1c(OC)c(OC)cc4c1C(Cc1ccc(O)c(c1)Oc1ccc(cc1)CC3N(C)CC2)CN(C)C4 (configuration not stated) | 22.9 µM | 13.7 µM | 43.4 µM | 29.6 µM | 30.9 µM | 30.9 µM | 39.1 µM | 31.3 µM | 26.9 µM | 32.2 µM | – | –
21 | C=C1CC(COc2ccc3c(C)c(C)c(=O)oc3c2C)(c2ccccc2)OC1=O (configuration not stated) | 2.78 µM | 7.12 µM | 2.96 µM | 3.88 µM | 4.16 µM | 9.66 µM | 4.82 µM | 3.59 µM | 4.75 µM | 3.03 µM | – | –
22 | O=c1ccn(-c2ccccn2)c(=O)n1-c1ccccn1 | > 100 µM | > 100 µM | > 100 µM | > 100 µM | > 100 µM | > 100 µM | > 100 µM | > 100 µM | > 100 µM | > 100 µM | – | –
23 | O=[N+]([O-])/C(Cl)=C(/C(Cl)=C(Cl)Cl)N1CCCCC1 | 23.4 µM | 33.4 µM | 30.2 µM | 25.3 µM | 11.6 µM | 22.8 µM | 27.5 µM | 22.2 µM | 31.9 µM | 35.8 µM | – | –
24 | O=C(OC12CC3CC(CC(C3)C1)C2)c1ccc(NCc2cc(O)ccc2O)cc1 | 2.86 µM | 3.75 µM | 2.07 µM | 2.38 µM | 1.67 µM | 2.3 µM | 1.97 µM | 4.11 µM | 1.31 µM | 1.96 µM | – | –
25 | O=CN1CCN(C(=O)c2ccco2)C1=S | 12.6 µM | 27.2 µM | 18.7 µM | 29.5 µM | 29.9 µM | 15.4 µM | 46.6 µM | 59 µM | 22.8 µM | 31 µM | 13.4 µM | –
26 | O=C1CC(c2ccccc2Cl)C2(C(=O)NC(=O)NC2=O)C(c2ccccc2Cl)C1 (configuration not stated) | > 100 µM | > 100 µM | > 100 µM | > 100 µM | 72.4 µM | > 100 µM | > 100 µM | > 100 µM | > 100 µM | > 100 µM | – | –
27 | COc1ccc(C2Oc3c(OC)cc(CCCO)cc3C2CO)cc1OC (configuration not stated) | > 100 µM | > 100 µM | > 100 µM | > 100 µM | > 100 µM | > 100 µM | > 100 µM | > 100 µM | > 100 µM | > 100 µM | – | –
28 | Cn1nc2c(c1N)Cc1c(nn(C)c1N)-c1ccccc1-2 | > 100 µM | > 100 µM | > 100 µM | > 100 µM | > 100 µM | > 100 µM | > 100 µM | > 100 µM | > 100 µM | > 100 µM | – | –
29 | CCOc1ccc(N=Nc2ccc3cc(/C(C)=N/NC(=O)/C(C#N)=C\c4ccc(N(CCC#N)CCC#N)cc4)c(=O)oc3c2)cc1 | > 10 µM | > 10 µM | > 10 µM | > 10 µM | > 10 µM | > 10 µM | > 10 µM | > 10 µM | > 10 µM | > 10 µM | – | –
30 | COc1cc2c3c(cc(Cl)nc3c1OC)C(=O)C(=O)N2 | 13.4 µM | 33.6 µM | 3.44 µM | > 100 µM | 3.82 µM | 32.5 µM | 3.05 µM | 43.9 µM | 36.4 µM | 33.4 µM | – | –
31 | C=C1C[C@@H]2CC[C@@]34C[C@H]5O[C@H]6[C@@H](O3)[C@H]3O[C@H](CC[C@@H]3O[C@H]6[C@H]5O4)CC(=O)C[C@@H]3[C@@H](OC)[C@@H](C[C@H](O)CN)O[C@H]3C[C@H]3O[C@@H](CC[C@@H]1O2)C[C@@H](C)C3=C | > 1 µM | 0.096 µM | > 1 µM | > 1 µM | > 1 µM | 0.000836 µM | > 1 µM | 0.167 µM | 0.00215 µM | > 1 µM | – | 0.0002 µM
32 | O=C(/C=C\Nc1ccccc1O)C(F)(F)F | > 100 µM | > 100 µM | > 100 µM | > 100 µM | 91.3 µM | 87 µM | > 100 µM | > 100 µM | > 100 µM | > 100 µM | – | –
